Source: patent US20060063143A1, “Immortalized hypothalamic neuronal cell lines” (priority 2002, published 2006)

System: immortalized hypothalamic subclones N-7, N-22, N-29
Test: Functional cAMP response of immortalized subclones to peptide stimulation (RIA)
Assay type: cell-based, mouse
Conditions: cell lines N-7, N-22 and N-29; 10^-7 M (100 nM) peptide, 15 minutes, IBMX 100 μM
From the text: The onset of mood disorders, such as depression or anxiety, involve the altered function of multiple loci in the brain that regulate emotionality, memory and motivation (41-43). However, the inability to describe a cellular and molecular aetiology of these conditions likely reflects, in part, the existence of critical neurological circuits not yet understood. A novel family of neuropeptides on the carboxy-terminus of the teneurin transmembrane proteins (32, 44) is implicated in neuronal communication. In one embodiment, they modulate stress responses and anxiety (data not shown) and likely play a role in some psychiatric illnesses. In another embodiment, they are implicated as modulators of cell cycle and cell proliferation. These sequences are called teneurin C-terminal-associated peptides (TCAP-1 to 4) [SEQ. ID NOs 1-9]. These peptides may also have a cleavable amidation signal at the C-terminus, such as “GRR” or “GKR”. […]
The functional cAMP response of the immortalized subclones to TCAP peptide stimulation was also assessed and the results are shown in FIG. 18. […] N-7, N-22 and N-29 were analyzed for the cAMP response to peptide stimulation. […] Cells were scraped from the plate and kept at −20° C. until the amounts of intracellular cAMP were determined in triplicate by RIA (Biotechnologies Inc., Stoughton, Mass.) according to the manufacturer's instructions.

## rtTCAP-3: teneurin C-terminal-associated peptide, rainbow trout TCAP-3, SEQ ID NO 9 plus amidation signal GKR; stress-regulating peptide provided by Dr. D. Lovejoy (QLLSGRKVLGYDGYYVLSIEQYPELADSANNIQFLRQSEI; C-terminal GKR amidation signal; Trout TCAP3)
  TCAP responsiveness of cell lines (cAMP response): responsive
